One series has as its target debrisoquin hydroxylase (Homo sapiens, UniProt P10635). The note with it: cited from earlier work.
The next series has as its system DM oxidation. The experiment in a line: Urinary DM/DRP ratio with other antioxidants (Example 4). The note with it: urine; for baseline DM/DRP ratio: DM alone. On the procedure:
In these tests, DM was administered at a constant dosage to various individuals, all were healthy volunteers. DM was taken both before and after a candidate antioxidant was taken, and urine samples were collected at appropriate times and analyzed to determine the quantity of DM and its principle metabolite dextrorphan (DRP) in the urine.
Twelve healthy volunteers were studied.
After the baseline DM/DRP value for each volunteer had been determined, a candidate antioxidant was administered. […] After an appropriate delay, a second urine sample was obtained and analyzed. Each agent was administered to two patients.

The subject of series [1] is dextromethorphan metabolism. The experiment in a line: Urinary DM/DR ratios (Example 1). The settings on record: urine, several hours after single 60 mg oral DM; ALS patients, one value per patient. Here is the method: Six patients suffering from ALS were administered orally a single 60 mg dextromethorphan dose. Several hours later, a urine sample was collected, and the urine concentrations of dextromethorphan (DM) and dextrorphan (DR) were measured as described below to determine a DM/DR ratio.
To this was added 2000 units of betaglucuronidase in 1 mL of acetate buffer (0.1M, pH 5.0). The mixture was incubated for 18 hours at 37° C. and then extracted by adding 1 mL of phosphate buffer (pH 12, 0.10M) and 7 mL of n-butanol/hexane (10:90 v/v). After mixing and centrifugation, the organic layer was transferred to a clean tube, acidified with 400 uL of 0.01N HCL and 20 microliters (uL) of aqueous phase injected into a high performance liquid chromatography (HPLC) system. The HPLC used a phenyl column equilibrated with a mobile phase of acetonitrile:water (51:49 v/v) containing 10 mM KHPO4, 10 mM hexane sulfonic acid, pH 4.0 (flow rate 1.2 mL/min).
Briefly, 0.5 ml urine samples were spiked with 500 nanograms (ng) of dimethacrine. The urine pH was adjusted to […] with 0.1M acetate buffer (usually about 1.0 ml), and beta-glucuronidase was added (2000 units/ml urine). The mixture was incubated and shaken at 37° C. for 18 hours. The urine was subsequently adjusted to pH 10-11 with 1.0 mL of phosphate buffer and the urine extracted with 5 mL of dichloromethane. […]

Series [2] concerns patients with emotional lability. The note with it: patients with bilateral neurological damage; described in U.S. Pat. No. 5,206,248; cited from earlier work.
Series [3] in a line: Plasma concentrations of DM (Example 2). It counts as in vivo, human. The note with it: DM 120 MG/DAY oral, quinidine 0; blood 10-12 hours later; one value per patient; listed as dextromethorphan. Here is the method:
Between 10 and 12 hours later, blood was sampled, blood plasma was isolated by centrifugation, and the plasma was analyzed to determine the DM concentration using the thebaine/HPLC method.
Between 10 and 12 hours later, blood was sampled and the plasma was analyzed for DM using thebaine/HPLC.

Several values for one entry are separate records, joined by “and”; a condition that tells them apart may be missing. Equal values may be shown once.

As a reminder, the Ki is a dissociation constant, usually derived from enzyme kinetics or from competition with a known ligand.

Sequence of debrisoquin hydroxylase (P10635 whole entry): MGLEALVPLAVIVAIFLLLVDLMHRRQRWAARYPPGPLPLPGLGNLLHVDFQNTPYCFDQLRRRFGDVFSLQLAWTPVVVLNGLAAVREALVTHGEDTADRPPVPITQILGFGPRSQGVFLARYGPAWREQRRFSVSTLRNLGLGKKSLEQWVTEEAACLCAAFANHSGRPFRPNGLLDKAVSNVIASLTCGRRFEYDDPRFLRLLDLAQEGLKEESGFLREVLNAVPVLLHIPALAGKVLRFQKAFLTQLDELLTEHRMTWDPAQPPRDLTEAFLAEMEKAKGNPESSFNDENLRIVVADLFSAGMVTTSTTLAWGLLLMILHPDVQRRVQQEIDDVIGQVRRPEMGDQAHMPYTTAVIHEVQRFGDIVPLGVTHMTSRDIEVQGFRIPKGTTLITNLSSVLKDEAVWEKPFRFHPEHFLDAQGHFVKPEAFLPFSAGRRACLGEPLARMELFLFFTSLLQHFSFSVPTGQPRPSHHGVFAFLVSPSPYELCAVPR

Regarding `CNCCC=C1c2ccccc2CCc2ccccc21` [nortriptyline], the inhibition constant Ki on debrisoquin hydroxylase was ≤ 50 µM.
Turning to `C=CCOc1ccccc1OCC(O)CNC(C)C` (stereo not shown) [oxprenolol], the Ki at debrisoquin hydroxylase is ≤ 50 µM.
Turning to `Cc1cccc(C)c1OCC(C)N` (stereo not shown) [mexiletine], on debrisoquin hydroxylase, the Ki was ≤ 50 µM.
For `COc1ccc2c(c1)[C@@]13CCCC[C@H]1[C@@H](C2)N(C)CC3` [DM, (+)-3-methoxy-N-methylmorphinan], the “baseline DM/DRP ratio” value in the series on DM oxidation (extensive metabolizers, healthy volunteers) was ≤ 0.06; with DM oxidation (one poor metabolizer (control)) it was 1.338. Further, the “DM/DRP ratio, pre-drug baseline” value with DM oxidation (DM before candidate antioxidant, single subjects) was 0.02 (2×) and 0.00 (3×) and 0.03 and 0.06 (2×). Moreover, the “DM/DR Ratio, no quinidine” value in series [1] was <0.0002 and 0.054 and 0.0048 and 0.0220 and 0.0002 and 0.0003. In addition, the “effect on symptoms of emotional lability” value in series [2] was “not observed in any patients who received DM alone”. The “DEXTROMETHORPHAN PLASMA LEVEL” value in series [3] is 9.3 NG/ML and NOT DETECTABLE (2×) and 16.5 NG/ML and 6.05 NG/ML.
On to `CC(CCc1ccccc1)NCC(O)c1ccc(O)c(C(N)=O)c1` (stereo not shown) [labetalol], for which the Ki on debrisoquin hydroxylase is ≤ 50 µM.
